Measured values taken from PubChem BioAssay AID2060484 (Molecular Pharmacology Branch, DTP, NCI, 2025).

Test system: SUM149PT spheroids with HUVEC/MSC, viability
Assay: Anticancer human tumor SUM149PT cell line growth inhibition [GQUAD];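 further: spheroids exposed to drugs for seven days before readout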;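 on viability, T/C: percent viability relative to DMSO vehicle control taken as 100%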
Settings: for IC50: curve of first compound; for viability, T/C: stronger effect = lower value
Source text: DNA G-quadruplex Stabilizer Agents in Combinations in Complex Spheroids
A high-throughput screen of multi-cell type tumor spheroids was designed to identify active combinations of DNA G-quadruplex stabilizer agents and targeted small molecules. Complex spheroids include a stromal component modeled by human endothelial cells (HUVEC) and fibroblasts modeled by human mesenchymal stem cells (MSCs). The concentration ranges selected for each drug and investigational agent were based upon clinically achievable concentrations if the clinical Cmax of the agent was known.
Compounds. The drugs and investigational agents: pidnarulex (CX-5461; NSC782164), APTO-253 (NSC789042), BRACO-19 (NSC847499), peposertib (NSC802822), ceralasertib (NSC780249), elimusertib (NSC800525), camonsertib (NSC841442), AZD-1390 (NSC803789), olaparib (NSC753686), talazoparib (NSC767125), ART-558 (NSC835418), sotorasib (NSC818433), MRTX-1133 (NSC836407), SN-38 (NSC673596), topotecan (NSC609699), etoposide (NSC141540), doxorubicin (NSC123127), gemcitabine (NSC613327), 5-fluorouracil (NSC19893), paclitaxel (NSC125973), vemurafenib (NSC761431), panobinostat (NSC761190), R-306465 (JNJ-16241199; NSC773264), adavosertib (NSC754352), TP-3654 (NSC805149), carboplatin (NSC241240), KSQ-4279 (NSC840948), and staurosporine (NSC755774) were obtained from the National Cancer Institute (NCI) Developmental Therapeutics Program Chemical Repository (34). The FDA-approved anticancer drug set is available from the NCI Developmental Therapeutics Program. […] The stock solutions were prepared in dimethyl sulfoxide (DMSO, Sigma-Aldrich, St. Louis, MO, cat. D2650) at 800-fold the tested concentration and stored at -70 degrees C prior to their use. All drugs and investigational agents were tested over a range starting from a high concentration at or near the clinical Cmax and decreasing in half-log increments. If the clinical Cmax for an agent had not been determined, the highest concentration tested was 10 microM.
2.3 Cell Culture. All cells were maintained in an incubator at 37 degrees C and 5% CO2 with 95% humidity. The PDC lines were cultured according to standard operating procedures established by the NCI PDMR. All PDCs were thawed and cultured in Matrigel-coated flasks prepared with a working solution of 1X Ham's F-12 nutrient mix, without supplementation (Invitrogen, cat. 11765054), 100 U/mL penicillin-streptomycin (Invitrogen, cat. 15140122), and 2.5% Matrigel (Corning Inc., cat. 354248) for the first three passages. The 857933-349-R-J2-PDC line was cultured in 6C/Colon 1B media, which includes advanced DMEM/F-12 (Thermo Fisher Scientific, cat. 12634028), 10 mM HEPES (Thermo Fisher Scientific, cat. 15630080), 1X GlutaMAX supplement (Thermo Fisher Scientific, cat. 35050061), 0.1 mg/mL primocin (InvivoGen, cat. ant-pm-2), 10% defined fetal bovine serum, heat inactivated (HyClone Laboratories Inc., cat. SH30070.03HI), 50% L-WRN conditioned media (ATCC, cat. CRL-3276), 1.25 mM N-Acetyl-L-cysteine (Sigma-Aldrich, cat. A9165), 10 mM nicotinamide (Sigma-Aldrich, cat. N0636), 1X B-27 supplement (Thermo Fisher Scientific, cat. 17504044), 1X N-2 supplement (Thermo Fisher Scientific, cat. 17502048), 10 microM Y-27632 dihydrochloride (Tocris Bioscience, cat. 1254), and 50 ng/mL human EGF recombinant protein (Thermo Fisher Scientific, cat. PHG0311). The 485176-168-R4-J1-PDC line was cultured in Panc media, which includes all 6C/Colon 1B media components plus 100 ng/mL human FGF-10 (Thermo Fisher Scientific, cat. 100-26), 500 nM SB-431542 (Selleckchem, cat. S1067), and gastrin (Tocris, cat. 3006).
[…]

[1] = second compound 0.0316 µM, first compound 0.0316 µM
[2] = second compound 0.0316 µM, first compound 0.1 µM
[3] = second compound 0.0316 µM, first compound 0.316 µM
[4] = second compound 0.0316 µM, first compound 1 µM
[5] = second compound 0.0316 µM, first compound 3.16 µM
[6] = second compound 0.0316 µM, first compound 10 µM
[7] = second compound 0.1 µM, first compound 0.0316 µM
[8] = second compound 0.1 µM, first compound 0.1 µM
[9] = second compound 0.1 µM, first compound 0.316 µM
[10] = second compound 0.1 µM, first compound 1 µM
[11] = second compound 0.1 µM, first compound 3.16 µM
[12] = second compound 0.1 µM, first compound 10 µM
[13] = second compound 0.316 µM, first compound 0.0316 µM
[14] = second compound 0.316 µM, first compound 0.1 µM
[15] = second compound 0.316 µM, first compound 0.316 µM
[16] = second compound 0.316 µM, first compound 1 µM
[17] = second compound 0.316 µM, first compound 3.16 µM
[18] = second compound 0.316 µM, first compound 10 µM
[19] = second compound 1 µM, first compound 0.0316 µM
[20] = second compound 1 µM, first compound 0.1 µM
[21] = second compound 1 µM, first compound 0.316 µM
[22] = second compound 1 µM, first compound 1 µM
[23] = second compound 1 µM, first compound 3.16 µM
[24] = second compound 1 µM, first compound 10 µM
[25] = second compound 3.16 µM, first compound 0.0316 µM
[26] = second compound 3.16 µM, first compound 0.1 µM
[27] = second compound 3.16 µM, first compound 0.316 µM
[28] = second compound 3.16 µM, first compound 1 µM
[29] = second compound 3.16 µM, first compound 3.16 µM
[30] = second compound 3.16 µM, first compound 10 µM
[31] = second compound 10 µM, first compound 0.0316 µM
[32] = second compound 10 µM, first compound 0.1 µM
[33] = second compound 10 µM, first compound 0.316 µM
[34] = second compound 10 µM, first compound 1 µM
[35] = second compound 10 µM, first compound 3.16 µM
[36] = second compound 10 µM, first compound 10 µM

SMILES: C#Cc1c(F)ccc2cc(O)cc(-c3ncc4c(N5CC6CCC(C5)N6)nc(OCC56CCCN5CC(F)C6)nc4c3F)c12 (centres undefined) + Cc1cnc(CNC(=O)c2c(=O)c3ccc(N4CCCN(C)CC4)nc3n3c2sc2ccccc23)cn1
- IC50 (second compound 0.0316 µM): 545 nM
- IC50 (second compound 0.1 µM): 243 nM
- IC50 (second compound 0.316 µM): 42.2 nM
- IC50 (second compound 1 µM): < 31.6 nM
- IC50 (second compound 3.16 µM): < 31.6 nM
- IC50 (second compound 10 µM): < 31.6 nM
- viability, T/C [1]: 90.1%
- viability, T/C [2]: 65.5%
- viability, T/C [3]: 66.2%
- viability, T/C [4]: 35.1%
- viability, T/C [5]: 36.6%
- viability, T/C [6]: 29%
- viability, T/C [7]: 51.6%
- viability, T/C [8]: 61.4%
- viability, T/C [9]: 45.2%
- viability, T/C [10]: 38.9%
- viability, T/C [11]: 30.7%
- viability, T/C [12]: 25.5%
- viability, T/C [13]: 48.6%
- viability, T/C [14]: 52.2%
- viability, T/C [15]: 37.9%
- viability, T/C [16]: 34.1%
- viability, T/C [17]: 28.1%
- viability, T/C [18]: 22.9%
- viability, T/C [19]: 34.1%
- viability, T/C [20]: 38.6%
- viability, T/C [21]: 33.4%
- viability, T/C [22]: 27.1%
- viability, T/C [23]: 24.2%
- viability, T/C [24]: 20.1%
- viability, T/C [25]: 35.5%
- viability, T/C [26]: 32.1%
- viability, T/C [27]: 31.4%
- viability, T/C [28]: 25.6%
- viability, T/C [29]: 23.3%
- viability, T/C [30]: 19.6%
- viability, T/C [31]: 0.13%
- viability, T/C [32]: 2.68%
- viability, T/C [33]: 11.3%
- viability, T/C [34]: 0.63%
- viability, T/C [35]: 2.15%
- viability, T/C [36]: 0.92%

SMILES: O=C(c1cc(Cc2n[nH]c(=O)c3ccccc23)ccc1F)N1CCN(C(=O)C2CC2)CC1 + Cc1cnc(CNC(=O)c2c(=O)c3ccc(N4CCCN(C)CC4)nc3n3c2sc2ccccc23)cn1
- IC50 (second compound 0.0316 µM): 9980 nM
- IC50 (second compound 0.1 µM): > 10000 nM
- IC50 (second compound 0.316 µM): 5010 nM
- IC50 (second compound 1 µM): < 31.6 nM
- IC50 (second compound 3.16 µM): < 31.6 nM
- IC50 (second compound 10 µM): < 31.6 nM
- viability, T/C [1]: 87.6%
- viability, T/C [2]: 72.1%
- viability, T/C [3]: 83.3%
- viability, T/C [4]: 88.3%
- viability, T/C [5]: 80.2%
- viability, T/C [6]: 50%
- viability, T/C [7]: 63.6%
- viability, T/C [8]: 70.1%
- viability, T/C [9]: 65.8%
- viability, T/C [10]: 66.4%
- viability, T/C [11]: 61.4%
- viability, T/C [12]: 44.5%
- viability, T/C [13]: 53.2%
- viability, T/C [14]: 58.5%
- viability, T/C [15]: 55.4%
- viability, T/C [16]: 54.5%
- viability, T/C [17]: 53.6%
- viability, T/C [18]: 44%
- viability, T/C [19]: 43%
- viability, T/C [20]: 47%
- viability, T/C [21]: 47.1%
- viability, T/C [22]: 48.4%
- viability, T/C [23]: 48.5%
- viability, T/C [24]: 42.7%
- viability, T/C [25]: 35.4%
- viability, T/C [26]: 42.2%
- viability, T/C [27]: 40.3%
- viability, T/C [28]: 38.7%
- viability, T/C [29]: 39.5%
- viability, T/C [30]: 37.6%
- viability, T/C [31]: 10.2%
- viability, T/C [32]: 12.1%
- viability, T/C [33]: 27.6%
- viability, T/C [34]: 30.5%
- viability, T/C [35]: 22.6%
- viability, T/C [36]: 2.16%
